Results published in ChEMBL document CHEMBL1201862, “PubChem BioAssay data set” (2004).
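Cells were grown in 96-well plates and exposed to each compound for 48 hours at five concentrations; endpoints were interpolated linearly between bracketing concentrations, or set to the highest concentration if not reached. Here, GI50 denotes the concentration required for 50% inhibition of growth.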 The source made the active and inactive calls. Cut-off read from the data, not from the text of the source: active = GI50 up to about 1.1 µM and inactive = higher.

Legend:
Assay in all cases: growth of human tumour cells (NCI), 48 h
[1] = tested on: MDA-MB-231
[2] = tested on: COLO 205
[3] = tested on: DU-145
[4] = tested on: CCRF-CEM
[5] = tested on: MCF7
[6] = tested on: RXF 393
[7] = tested on: HOP-92
[8] = tested on: M14
[9] = tested on: SF-268
[10] = tested on: NCI-H23
[11] = tested on: NCI-H522
[12] = tested on: BT-549
[13] = tested on: KM12
[14] = tested on: SN12C
[15] = tested on: SF-295
[16] = tested on: RPMI-8226
[17] = tested on: Hs-578T
[18] = tested on: UACC-257
[19] = tested on: EKVX
[20] = tested on: MDA-N
[21] = tested on: MDA-MB-435
[22] = tested on: HCT-15
[23] = tested on: ACHN
[24] = tested on: SK-OV-3
[25] = tested on: A498
[26] = tested on: SNB-75
[27] = tested on: SR
[28] = tested on: LOX IMVI
[29] = tested on: U-251
[30] = tested on: OVCAR-3
[31] = tested on: Malme-3M
[32] = tested on: NCI-H226
[33] = tested on: TK-10
[34] = tested on: NCI/ADR-RES
[35] = tested on: SK-MEL-28
[36] = tested on: UACC-62
[37] = tested on: SW-620
[38] = tested on: SK-MEL-5
[39] = tested on: 786-0
[40] = tested on: IGROV-1
[41] = tested on: HOP-62
[42] = tested on: MOLT-4
[43] = tested on: NCI-H460
[44] = tested on: SF-539
[45] = tested on: CAKI-1
[46] = tested on: UO-31
[47] = tested on: HL-60
[48] = tested on: SNB-19
[49] = tested on: OVCAR-5
[50] = tested on: A549
[51] = tested on: PC-3
[52] = tested on: T47D
[53] = tested on: HCT-116
[54] = tested on: K562
[55] = tested on: OVCAR-4
[56] = tested on: OVCAR-8
[57] = tested on: HT-29
[58] = tested on: HCC 2998
[59] = tested on: SK-MEL-2

Cc1nc(-n2[nH]c(C)c(CCO)c2=O)[nH]c(=O)c1CCO
GI50 [1]: > 100 µM (inactive) | GI50 [2]: > 100 µM (inactive) | GI50 [3]: > 100 µM (inactive) | GI50 [4]: > 100 µM (inactive) | GI50 [5]: > 100 µM (inactive) | GI50 [6]: > 100 µM (inactive) | GI50 [7]: > 100 µM (inactive) | GI50 [8]: > 100 µM (inactive) | GI50 [9]: > 100 µM (inactive) | GI50 [10]: > 100 µM (inactive) | GI50 [11]: > 100 µM (inactive) | GI50 [12]: > 100 µM (inactive) | GI50 [13]: > 100 µM (inactive) | GI50 [14]: > 100 µM (inactive) | GI50 [15]: > 100 µM (inactive) | GI50 [16]: > 100 µM (inactive) | GI50 [17]: > 100 µM (inactive) | GI50 [18]: > 100 µM (inactive) | GI50 [19]: > 100 µM (inactive) | GI50 [20]: > 100 µM (inactive) | GI50 [21]: > 100 µM (inactive) | GI50 [22]: > 100 µM | GI50 [23]: > 100 µM (inactive) | GI50 [24]: > 100 µM (inactive) | GI50 [25]: 93.1 µM (inactive) | GI50 [26]: > 100 µM (inactive) | GI50 [27]: > 100 µM (inactive) | GI50 [28]: > 100 µM (inactive) | GI50 [29]: > 100 µM (inactive) | GI50 [30]: > 100 µM (inactive) | GI50 [31]: < 0.01 µM (active) | GI50 [32]: > 100 µM (inactive) | GI50 [33]: > 100 µM (inactive) | GI50 [34]: > 100 µM (inactive) | GI50 [35]: > 100 µM (inactive) | GI50 [36]: > 100 µM (inactive) | GI50 [37]: > 100 µM (inactive) | GI50 [38]: > 100 µM (inactive) | GI50 [39]: > 100 µM (inactive) | GI50 [40]: > 100 µM (inactive) | GI50 [41]: > 100 µM (inactive) | GI50 [42]: > 100 µM (inactive) | GI50 [43]: > 100 µM (inactive) | GI50 [44]: > 100 µM (inactive) | GI50 [45]: > 100 µM (inactive) | GI50 [46]: > 100 µM (inactive) | GI50 [47]: > 100 µM (inactive) | GI50 [48]: > 100 µM (inactive) | GI50 [49]: > 10 µM (inactive) | GI50 [50]: > 100 µM (inactive) | GI50 [51]: > 100 µM (inactive) | GI50 [52]: > 100 µM (inactive) | GI50 [53]: > 100 µM (inactive) | GI50 [54]: > 100 µM (inactive) | GI50 [55]: > 100 µM (inactive) | GI50 [56]: > 100 µM (inactive) | GI50 [57]: > 100 µM (inactive) | GI50 [58]: > 100 µM (inactive)

Nc1cc2nc(O)c(O)nc2cc1N
GI50 [1]: > 100 µM (inactive) | GI50 [2]: > 100 µM (inactive) | GI50 [3]: > 100 µM (inactive) | GI50 [4]: > 100 µM (inactive) | GI50 [5]: > 100 µM (inactive) | GI50 [6]: > 100 µM (inactive) | GI50 [7]: > 100 µM (inactive) | GI50 [9]: > 100 µM (inactive) | GI50 [10]: > 100 µM (inactive) | GI50 [12]: > 100 µM (inactive) | GI50 [13]: > 100 µM (inactive) | GI50 [14]: > 100 µM (inactive) | GI50 [15]: > 100 µM (inactive) | GI50 [16]: > 100 µM (inactive) | GI50 [17]: > 100 µM (inactive) | GI50 [18]: > 100 µM (inactive) | GI50 [19]: > 100 µM (inactive) | GI50 [20]: > 100 µM (inactive) | GI50 [21]: > 100 µM (inactive) | GI50 [22]: > 100 µM | GI50 [23]: > 100 µM (inactive) | GI50 [24]: > 100 µM (inactive) | GI50 [25]: > 100 µM (inactive) | GI50 [26]: > 100 µM (inactive) | GI50 [27]: > 100 µM (inactive) | GI50 [28]: > 100 µM (inactive) | GI50 [29]: > 100 µM (inactive) | GI50 [30]: > 100 µM (inactive) | GI50 [31]: > 100 µM (inactive) | GI50 [32]: > 100 µM (inactive) | GI50 [33]: > 100 µM (inactive) | GI50 [34]: > 100 µM (inactive) | GI50 [35]: > 100 µM (inactive) | GI50 [36]: > 100 µM (inactive) | GI50 [37]: > 100 µM (inactive) | GI50 [38]: > 100 µM (inactive) | GI50 [39]: > 100 µM (inactive) | GI50 [40]: > 100 µM (inactive) | GI50 [41]: > 100 µM (inactive) | GI50 [42]: > 100 µM (inactive) | GI50 [43]: > 100 µM (inactive) | GI50 [44]: > 100 µM (inactive) | GI50 [59]: > 100 µM (inactive) | GI50 [45]: > 100 µM (inactive) | GI50 [46]: > 100 µM (inactive) | GI50 [47]: > 100 µM (inactive) | GI50 [48]: > 100 µM (inactive) | GI50 [49]: > 100 µM (inactive) | GI50 [50]: > 100 µM (inactive) | GI50 [51]: > 100 µM (inactive) | GI50 [52]: > 100 µM (inactive) | GI50 [53]: > 100 µM (inactive) | GI50 [54]: > 100 µM (inactive) | GI50 [55]: > 100 µM (inactive) | GI50 [56]: > 100 µM (inactive) | GI50 [57]: > 100 µM (inactive) | GI50 [58]: > 100 µM (inactive)
